Experimental data reported in US11440903B2, “Salt form and crystal form of compound as FGFR4 inhibitor and preparation method thereof” (GUANGDONG ZHONGSHENG PHARMACEUTICAL CO., LTD, priority 2017, dated 2022).
Like-named read-outs stand apart in the source and are kept apart here.

Test: Solubility test in biological media (FaSSIF, FeSSIF, SGF) and water, 37° C.
Assay type: physicochemical
Conditions: for Status (24 h) / solubility at 24 h / pH 24 hours: 37° C.; for Status (24 h): about 4 mg in 2 mL; for solubility at 24 h: salt forms converted to salt concentrations, read-out: Solubility (mg/mL) 24 hours; for pH 24 hours: supernatant; for pH 0 hour: initial
Procedure: Step 1: Preparation of Control Solutions (0.2 mg/mL, calculated by free base)
2 mg the crystal form B of the compound represented by formula (I) (or 2.4 mg the crystal form E of the compound represented by formula (II)) as a control was precisely weighed and placed into a 40 mL glass vial, and a diluent (10 mL) was precisely added. The reaction solution was subjected to ultrasonic treatment for 20 min to sufficiently dissolve, then cooled to room temperature and shaked well. Two control solutions (STD #1, STD #2) were formulated in accordance with this method.
Step 2: Preparation of Linear Solutions
The control solution STD #1 of the crystal form B of the compound represented by formula (I) was 1×, 10×, 100×, 1000× and 2000× (free base LOQ) diluted, and designated as the linear solutions L1, L2, L3, L4 and L5; the control solution STD #1 of the crystal form E of the compound represented by formula (II) was 1×, 10×, 100× and 1000× (methanesulfonate LOQ) diluted, and designated as the linear solutions L1, L2, L3, L4.
Step 3: Solubility Test of the crystal form B of the compound represented by formula (I), the crystal form G of the compound represented by formula (III) and the crystal form E of the compound represented by formula (II) in biological media and water
4 samples (about 4 mg) of each of the crystal form B of the compound represented by formula (I), the crystal form E of the compound represented by formula (II), and the crystal form G of the compound represented by formula (III) were added into 12 glass vials (4 mL), respectively, and then 2 mL different biological media (FaSSIF, FeSSIF, SGF) and water were added into each compound respectively, then mixed homogeneously to form a suspension. The suspension was detected for its initial pH value. A magnet was added into the suspension, and placed on a magnetic stirring heater for stirring (at a temperature of 37° C., in dark). After stirring for 24 h, a sample was taken. The taken sample was quickly centrifuged, and the residual solid was detected by XRPD. The supernatant was detected for its pH value and diluted with a diluent into appropriate multiple, then measured with HPLC for its concentration.
FaSSIF: 1. 0.042 g sodium hydroxide, 0.3438 g sodium dihydrogen phosphate and 0.6186 g sodium chloride were weighed, added into 90 mL purified water, and homogeneously mixed, then, the mixture was adjusted with 1 N hydrochloric acid or 1 N sodium hydroxide to pH=6.5, and diluted into a constant volume of 100 mL with purified water; 2. 50 mL of the buffer described above was taken, and 0.224 g commercially available powder (Biorelevant.com) of FaSSIF/FeSSIF/FaSSGF was added thereto, the mixture was stirred to dissolve, and diluted with purified water to a constant volume of 100 mL.
FeSSIF: 1. 0.404 g sodium hydroxide, 0.865 g glacial acetic acid, and 1.1874 g sodium chloride were weighed, added into 90 mL purified water, and homogeneously mixed, then, the mixture was adjusted with 1 N hydrochloric acid or 1 N sodium hydroxide to pH=5.0, and diluted with purified water to a constant volume of 100 mL, 2. 50 mL of the buffer described above was taken, and 1.12 g commercially available powder (Biorelevant.com) of FaSSIF/FeSSIF/FaSSGF was added thereto, the mixture was stirred to dissolve, and diluted with purified water to a constant volume of 100 mL.
FaSSGF (SGF): 1. 0.2 g sodium chloride was weighed, added into 90 mL purified water, and mixed homogeneously, the mixture was adjusted with 1 N hydrochloric acid to pH=1.8, and diluted with purified water to a constant volume of 100 mL, and stood at room temperature.

[1] = SGF (FaSSGF), pH 1.8, simulated gastric fluid, thermodynamic from solid, SGF
[2] = pH 5, thermodynamic from solid, FeSSIF
[3] = pH 6.5, thermodynamic from solid, FaSSIF
[4] = thermodynamic from solid, Water

Compound	Status (24 h) (FaSSIF)	solubility in three types of biological media, conclusion in words (FaSSIF, FeSSIF, SGF)	Status (24 h) (FeSSIF)	solubility at 24 h [1]	Status (24 h) (SGF)	Status (24 h) (Water)	solubility at 24 h [2]	solubility at 24 h [3]	pH 24 hours (FaSSIF)	pH 24 hours (FeSSIF)	pH 24 hours (SGF)	pH 24 hours (Water)	pH 0 hour (suspension in FaSSIF)	pH 0 hour (suspension in FeSSIF)	pH 0 hour (suspension in SGF)	pH 0 hour (suspension in Water)	solubility at 24 h [4]
C=CC(=O)N[C@H]1COC[C@H]1Nc1ncc(/C=C(\F)c2c(Cl)c(OC)cc(OC)c2Cl)cn1.CS(=O)(=O)O [Crystal Form E]	Suspension	good solubility	Suspension	0.041 mg/mL	Suspension	Suspension	0.358 mg/mL	0.036 mg/mL	6.81	5.11	2.31	2.74	6.97	4.92	2.17	3.50	0.1 mg/mL
C=CC(=O)N[C@H]1COC[C@H]1Nc1ncc(/C=C(\F)c2c(Cl)c(OC)cc(OC)c2Cl)cn1 [Crystal Form B]	Suspension	good solubility	Suspension	0.014 mg/mL	Suspension	Suspension	0.284 mg/mL	0.041 mg/mL	7.10	5.18	2.48	7.30	7.04	4.98	2.21	8.34	0.007 mg/mL
